Assay results: US20250011288A1 (BRISTOL-MYERS SQUIBB COMPANY, priority 2021, published 2025)

Target: T1, human RXFP1 (Homo sapiens, UniProt Q9HBX9)
T1 construct: expressed in transfected cells
T1 sequence (Q9HBX9 1-757): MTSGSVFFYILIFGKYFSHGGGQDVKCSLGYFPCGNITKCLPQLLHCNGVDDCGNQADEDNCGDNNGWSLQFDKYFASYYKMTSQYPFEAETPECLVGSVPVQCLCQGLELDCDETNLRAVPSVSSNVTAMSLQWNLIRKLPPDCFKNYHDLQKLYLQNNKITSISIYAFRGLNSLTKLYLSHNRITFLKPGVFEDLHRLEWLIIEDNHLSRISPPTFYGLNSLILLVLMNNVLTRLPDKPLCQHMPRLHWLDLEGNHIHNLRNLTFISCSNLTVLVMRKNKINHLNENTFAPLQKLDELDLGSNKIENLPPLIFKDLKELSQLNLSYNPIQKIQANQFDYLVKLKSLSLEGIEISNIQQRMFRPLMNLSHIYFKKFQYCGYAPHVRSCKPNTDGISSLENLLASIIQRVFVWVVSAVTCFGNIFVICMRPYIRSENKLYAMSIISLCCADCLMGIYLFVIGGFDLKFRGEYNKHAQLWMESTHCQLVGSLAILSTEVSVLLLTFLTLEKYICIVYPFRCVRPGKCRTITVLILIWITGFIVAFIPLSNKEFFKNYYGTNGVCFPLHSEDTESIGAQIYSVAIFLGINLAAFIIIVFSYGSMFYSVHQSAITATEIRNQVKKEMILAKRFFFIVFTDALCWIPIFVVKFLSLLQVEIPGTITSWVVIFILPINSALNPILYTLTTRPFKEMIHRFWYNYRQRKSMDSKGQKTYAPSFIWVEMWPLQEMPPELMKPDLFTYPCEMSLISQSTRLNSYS
Assay: human RXFP1 (hRXFP1) HEK293 cAMP assay (HTRF)
Format: cell-based
Details: HEK293 cells stably expressing human RXFP1, 30 min at room temperature
Procedure: RXFP1 Cyclic Adenosine Monophosphate (cAMP) Assays. […] Cells were dissociated and suspended in assay buffer. The assay buffer was HBSS buffer (with calcium and magnesium) containing 20 mM HEPES, 0.05% BSA, and 0.5 mM IBMX. Cells (3000 cells per well, except 1500 cell per well for HEK293 cells stably expressing human RXFP1) were added to 384-well Proxiplates (Perkin-Elmer). Cells were immediately treated with test compounds in DMSO (2% final) at final concentrations in the range of 0.010 nM to 50 µM. Cells were incubated for 30 min at room temperature. The level of intracellular cAMP was determined using the HTRF HiRange cAMP assay reagent kit (Cisbio) according to manufacturer's instructions. Solutions of cryptate conjugated anti-cAMP and d2 fluorophore-labelled cAMP were made in a supplied lysis buffer separately. Upon completion of the reaction, the cells were lysed with equal volume of the d2-cAMP solution and anti-cAMP solution. […] The potency and activity of a compound to […] cAMP production was then determined by fitting to a 4-parametric logistic equation from a plot of cAMP level versus compound concentrations.

Row | EC50 [nM] | Compound
1 | 4400 | O=C(O)c1cccc(C2=NOC(C(=O)N[C@@H]3C4CCC(/C4=C/C(F)(F)F)[C@@H]3C(=O)Nc3ccc(F)c(C(F)(F)F)c3)C2)c1 (stereo partly drawn) [Example 33, 3-(5-{[(2R,3S,7Z)-3-{[4-fluoro-3-(trifluoromethyl)phenyl]carbamoyl}-7-(2,2,2-trifluoroethylidene)bicyclo[2.2.1]heptan-2-yl]carbamoyl}-4,5-dihydro-1,2-oxazol-3-yl)benzoic acid]
2 | 3000 | COc1ncc(-c2cc([C@H](O)C(F)(F)F)ccc2F)nc1C(=O)N[C@@H]1C2CCC(/C2=C/C(F)(F)F)[C@@H]1C(=O)Nc1ccc(F)c(C(F)(F)F)c1 (stereo partly drawn) [Example 34, N-[(2R,3S,7Z)-3-{[4-fluoro-3-(trifluoromethyl)phenyl]carbamoyl}-7-(2,2,2-trifluoroethylidene)bicyclo[2.2.1]heptan-2-yl]-6-{2-fluoro-5-[(1S)-2,2,2-trifluoro-1-hydroxyethyl]phenyl}-3-methoxypyrazine-2-carboxamide]
3 | 42 | COc1ncc(-c2cc([C@H](OC(=O)Nc3ccccc3)C(F)(F)F)ccc2F)nc1C(=O)N[C@@H]1C2CCC(/C2=C/C(F)(F)F)[C@@H]1C(=O)Nc1ccc(F)c(C(F)(F)F)c1 (stereo partly drawn) [Example 35, (1S)-2,2,2-trifluoro-1-[4-fluoro-3-(6-{[(2R,3S,7Z)-3-{[4-fluoro-3-(trifluoromethyl)phenyl]carbamoyl}-7-(2,2,2-trifluoroethylidene)bicyclo[2.2.1]heptan-2-yl]carbamoyl}-5-methoxypyrazine-2-yl)phenyl]ethyl N-phenylcarbamate]
4 | 63 | COc1cnc(-c2cc([C@H](OC(=O)Nc3ccccc3)C(F)(F)F)ccc2F)nc1C(=O)N[C@@H]1C2CCC(/C2=C/C(F)(F)F)[C@@H]1C(=O)Nc1ccc(F)c(C(F)(F)F)c1 (stereo partly drawn) [Example 36, (1S)-2.2,2-trifluoro-1-[4-fluoro-3-(4-{[(2R,3S,7Z)-3-{[4-fluoro-3-(trifluoromethyl)phenyl]carbamoyl}-7-(2,2,2-trifluoroethylidene)bicyclo[2. 2.1]heptan-2-yl]carbamoyl}-5-methoxypyrimidin-2-yl)phenyl]ethyl N-phenylcarbamate]
5 | 95 | COc1cnc(-c2cc([C@H](OC(=O)NC3CCC3)C(F)(F)F)ccc2F)nc1C(=O)N[C@@H]1C2CCC(/C2=C/C(F)(F)F)[C@@H]1C(=O)Nc1ccc(F)c(C(F)(F)F)c1 (stereo partly drawn) [Example 37, (1S)-2,2,2-trifluoro-1-14-fluoro-3-(4-{[(2R,3S,7Z)-3-{[4-fluoro-3-(trifluoromethyl)phenyl]carbamoyl}-7-(2,2,2-trifluoroethylidene)bicyclo[2.2.1]heptan-2-yl]carbamoyl}-5-methoxypyrimidin-2-yl)phenyl]ethyl N-cyclobutylcarbamate]
6 | 63 | COc1cnc(-c2cc([C@H](OC(=O)Nc3ccccc3)C(F)(F)F)ccc2F)cc1C(=O)N[C@@H]1C2CCC(/C2=C/C(F)(F)F)[C@@H]1C(=O)Nc1ccc(F)c(C(F)(F)F)c1 (stereo partly drawn) [Example 38, (1S)-2,2,2-trifluoro-1-14-fluoro-3-(4-{[(2R,3S,7Z)-3-{[4-fluoro-3-(trifluoromethyl)phenyl]carbamoyl}-7-(2.2,2-trifluoroethylidene)bicyclo[2.2.1]heptan-2-yl]carbamoyl}-5-methoxypyridin-2-yl)phenyl]ethyl N-phenylcarbamate]
7 | 110 | COc1ccc(-c2cc([C@H](OC(=O)Nc3ccccc3)C(F)(F)F)ccc2F)nc1C(=O)N[C@@H]1C2CCC(/C2=C/C(F)(F)F)[C@@H]1C(=O)Nc1ccc(F)c(C(F)(F)F)c1 (stereo partly drawn) [Example 39, (1S)-2,2,2-trifluoro-1-14-fluoro-3-(6-{[(2R,3S,72)-3-{[4-fluoro-3-(trifluoromethyl)phenyl]carbamoyl}-7-(2,2,2-trifluoro-ethylidene)bicyclo[2. 2.1]heptan-2-yl]carbamoyl}-5-methoxypyridin-2-yl)phenyl]ethyl N-phenylcarbamate]
8 | 39 | O=C(O)c1ccc(F)c(-c2cnc(OCCO)c(C(=O)N[C@H]3[C@@H](C(=O)Nc4ccc(F)c(C(F)(F)F)c4)[C@H]4CC[C@@H]3/C4=C\C(F)(F)F)c2)c1 [Example 40, 4-fluoro-3-(5-(((1R,2R,3S,4R,Z)-3-((4-fluoro-3-(trifluoromethyl)phenyl)carbamoyl)-7-(2,2,2-trifluoroethylidene)bicyclo[2.2.1]heptan-2-yl)carbamoyl)-6-(2-hydroxyethoxy)pyridin-3-yl)benzoic acid]
9 | 770 | O=C(N[C@@H]1C2CCC(/C2=C/C(F)(F)F)[C@@H]1C(=O)Nc1ccc(F)c(C(F)(F)F)c1)c1cc(Br)cnc1OCCO (stereo partly drawn) [Example 41, 5-bromo-N-[(2R,3S,7Z)-3-{[4-fluoro-3-(trifluoromethyl)phenyl]carbamoyl}-7-(2,2,2-trifluoroethylidene)bicyclo[2.2.1]heptan-2-yl]-2-(2-hydroxyethoxy) pyridine-3-carboxamide]
10 | 8.1 | O=C(Nc1ccccc1)O[C@@H](c1ccc(F)c(-c2cnc(OCCO)c(C(=O)N[C@H]3[C@@H](C(=O)Nc4ccc(F)c(C(F)(F)F)c4)[C@H]4CC[C@@H]3/C4=C\C(F)(F)F)c2)c1)C(F)(F)F [Example 42, (S)-2,2,2-trifluoro-1-(4-fluoro-3-(5-(((1R,2R,3S,4R,Z)-3-((4-fluoro-3-(trifluoromethyl)phenyl)carbamoyl)-7-(2,2,2-trifluoroethylidene)bicyclo[2.2.1]heptan-2-yl)carbamoyl)-6-(2-hydroxyethoxy)pyridin-3-yl)phenyl)ethyl phenylcarbamate]
11 | 9.4 | O=C(NC1CCC1)O[C@@H](c1ccc(F)c(-c2cnc(OCCO)c(C(=O)N[C@@H]3C4CCC(/C4=C/C(F)(F)F)[C@@H]3C(=O)Nc3ccc(F)c(C(F)(F)F)c3)c2)c1)C(F)(F)F (stereo partly drawn) [Example 43, (IS)-2,2,2-trifluoro-1-14-fluoro-3-(5-{[(2R,3S,7Z)-3-{[4-fluoro-3-(trifluoromethyl)phenyl]carbamoyl}-7-(2,2,2-trifluoroethylidene)bicyclo[2. 2.1]heptan-2-yl]carbamoyl}-6-(2-hydroxyethoxy)pyridin-3-yl)phenyl]ethyl N-cyclobutylcarbamate]
12 | 360 | O=C(O)c1ccc(F)c(-c2cc(C(=O)N[C@@H]3C4CCC(/C4=C/C(F)(F)F)[C@@H]3C(=O)Nc3ccc(F)c(C(F)(F)F)c3)c(OCCO)cn2)c1 (stereo partly drawn) [Example 44, 4-Fluoro-3-(4-{[(2R,3S,7Z)-3-{[4-fluoro-3-(trifluoromethyl)phenyl]carbamoyl}-7-(2,2,2-trifluoroethylidene)bicyclo[2.2.1]heptan-2-yl]carbamoyl}-5-(2-hydroxyethoxy)pyridin-2-yl)benzoic acid]
13 | 560 | O=C(N[C@@H]1C2CCC(/C2=C/C(F)(F)F)[C@@H]1C(=O)Nc1ccc(F)c(C(F)(F)F)c1)c1cc(Br)ncc1OCCO (stereo partly drawn) [Example 45, 2-Bromo-N-[(2R,3S,7Z)-3-{[4-fluoro-3-(trifluoromethyl)phenyl]carbamoyl}-7-(2,2,2-trifluoroethylidene)bicyclo[2. 2.1]heptan-2-yl]-5-(2-hydroxyethoxy) pyridine-4-carboxamide]
14 | 65 | O=C(NC1CCC1)O[C@@H](c1ccc(F)c(-c2cc(C(=O)N[C@@H]3C4CCC(/C4=C/C(F)(F)F)[C@@H]3C(=O)Nc3ccc(F)c(C(F)(F)F)c3)c(OCCO)cn2)c1)C(F)(F)F (stereo partly drawn) [Example 46, (1S)-2,2,2-trifluoro-1-[4-fluoro-3-(4-{[(2R,3S,7Z)-3-{[4-fluoro-3-(trifluoromethyl)phenyl]carbamoyl}-7-(2,2,2-trifluoroethylidene)bicyclo[2. 2.1]heptan-2-yl]carbamoyl}-5-(2-hydroxyethoxy)pyridin-2-yl)phenyl]ethyl N-cyclobutyl-carbamate]
15 | 200 | O=C(O)c1ccc(F)c(-c2cnc(OCCO)c(C(=O)N[C@@H]3C4CCC(/C4=C/C(F)(F)F)[C@@H]3C(=O)Nc3ccc(F)c(C(F)(F)F)c3)n2)c1 (stereo partly drawn) [Example 47, 4-Fluoro-3-(6-{[(2R,3S,7Z)-3-{[4-fluoro-3-(trifluoromethyl)phenyl]carbamoyl}-7-(2,2,2-trifluoroethylidene)bicyclo[2.2.1]heptan-2-yl]carbamoyl}-5-(2-hydroxyethoxy)pyrazin-2-yl)benzoic acid]
16 | 880 | O=C(N[C@@H]1C2CCC(/C2=C/C(F)(F)F)[C@@H]1C(=O)Nc1ccc(F)c(C(F)(F)F)c1)c1nc(Br)cnc1OCCO (stereo partly shown) [Example 48]
